Assay results taken from PubChem BioAssay AID2060601 (Molecular Pharmacology Branch, DTP, NCI, 2025).
Several values for one entry are separate records, joined by “and”; a condition that tells them apart may be missing. Equal values may be shown once.

System: 874868-142-R-J2-PDC complex spheroids, growth % test/control
Test: Anticancer human tumor 874868-142-R-J2-PDC patient-derived head and neck squamous carcinoma cell line growth inhibition [CLK]
Details: for viability, T/C: stronger effect = lower value
Outline: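 Multi-cell-type spheroids combined patient-derived tumor cells with HUVEC endothelial cells and human mesenchymal stem cells. Paired agents were dosed in half-log steps down from about clinical Cmax, or from 10 microM where Cmax was unknown.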
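Note: spheroids exposed to the compounds for 7 days.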
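Throughout, for viability, T/C: 100% = DMSO vehicle control viability.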

SMILES: Nc1ccccc1NC(=O)c1ccc(CNC(=O)OCc2cccnc2)cc1 + CN1CCN(c2cc(C(=O)Nc3cc4cc(-c5cnn(C)c5)ccc4cn3)ccn2)CC1
- IC50 (curve of first compound, second compound 0.0316 µM): 7470 nM
- IC50 (curve of first compound, second compound 0.1 µM): 4500 nM
- IC50 (curve of first compound, second compound 0.316 µM): < 31.6 nM
- IC50 (curve of first compound, second compound 1 µM): < 31.6 nM
- IC50 (curve of first compound, second compound 3.16 µM): < 31.6 nM
- IC50 (curve of first compound, second compound 10 µM): < 31.6 nM
- viability, T/C (second compound 0.0316 µM, first compound 0.0316 µM): 86.7%
- viability, T/C (second compound 0.0316 µM, first compound 0.1 µM): 79.6%
- viability, T/C (second compound 0.0316 µM, first compound 0.316 µM): 88.7%
- viability, T/C (second compound 0.0316 µM, first compound 1 µM): 116%
- viability, T/C (second compound 0.0316 µM, first compound 3.16 µM): 94.5%
- viability, T/C (second compound 0.0316 µM, first compound 10 µM): 35.2%
- viability, T/C (second compound 0.1 µM, first compound 0.0316 µM): 73.2%
- viability, T/C (second compound 0.1 µM, first compound 0.1 µM): 67.8%
- viability, T/C (second compound 0.1 µM, first compound 0.316 µM): 72.5%
- viability, T/C (second compound 0.1 µM, first compound 1 µM): 102%
- viability, T/C (second compound 0.1 µM, first compound 3.16 µM): 62.8%
- viability, T/C (second compound 0.1 µM, first compound 10 µM): 21.2%
- viability, T/C (second compound 0.316 µM, first compound 0.0316 µM): 13.4%
- viability, T/C (second compound 0.316 µM, first compound 0.1 µM): 15.8%
- viability, T/C (second compound 0.316 µM, first compound 0.316 µM): 15.8%
- viability, T/C (second compound 0.316 µM, first compound 1 µM): 17.9%
- viability, T/C (second compound 0.316 µM, first compound 3.16 µM): 7.51%
- viability, T/C (second compound 0.316 µM, first compound 10 µM): 0.19%
- viability, T/C (second compound 1 µM, first compound 0.0316 µM): 0.32%
- viability, T/C (second compound 1 µM, first compound 0.1 µM): 6.56%
- viability, T/C (second compound 1 µM, first compound 0.316 µM): 0.28%
- viability, T/C (second compound 1 µM, first compound 1 µM): 0.17%
- viability, T/C (second compound 1 µM, first compound 3.16 µM): 0.12%
- viability, T/C (second compound 1 µM, first compound 10 µM): 2.14%
- viability, T/C (second compound 3.16 µM, first compound 0.0316 µM): 0.23%
- viability, T/C (second compound 3.16 µM, first compound 0.1 µM): 0.27%
- viability, T/C (second compound 3.16 µM, first compound 0.316 µM): 0.18%
- viability, T/C (second compound 3.16 µM, first compound 1 µM): 0.2%
- viability, T/C (second compound 3.16 µM, first compound 3.16 µM): 0.27%
- viability, T/C (second compound 3.16 µM, first compound 10 µM): 0.26%
- viability, T/C (second compound 10 µM, first compound 0.0316 µM): 0.1%
- viability, T/C (second compound 10 µM, first compound 0.1 µM): 0.32%
- viability, T/C (second compound 10 µM, first compound 0.316 µM): 0.16%
- viability, T/C (second compound 10 µM, first compound 1 µM): 0.14%
- viability, T/C (second compound 10 µM, first compound 3.16 µM): 0.18%
- viability, T/C (second compound 10 µM, first compound 10 µM): 2.46%

SMILES: NC(=O)C(=Cn1cnc(-c2cc(C(F)(F)F)cc(C(F)(F)F)c2)n1)c1cncnc1
- viability, T/C (compound 0.00949 µM): 90.5% and 86%
- viability, T/C (compound 0.03 µM): 72.8% and 48.9%
- viability, T/C (compound 0.0949 µM): 43.8% and 30.9%
- viability, T/C (compound 0.3 µM): 18.4% and 12%
- viability, T/C (compound 0.949 µM): 4.77% and 4.05%
- viability, T/C (compound 3 µM): 8.1% and 6.28%
- IC50 (curve of compound): 73 nM and 31.1 nM

SMILES: CCN1CCN(Cc2ccc(Nc3ncc(F)c(-c4cc(F)c5nc(C)n(C(C)C)c5c4)n3)nc2)CC1
- viability, T/C (compound 0.00316 µM): 107% and 111%
- viability, T/C (compound 0.01 µM): 83.9% and 104%
- viability, T/C (compound 0.0316 µM): 89.7% and 115%
- viability, T/C (compound 0.1 µM): 76.6% and 104%
- viability, T/C (compound 0.316 µM): 97.1% and 112%
- viability, T/C (compound 1 µM): 156% and 101%
- IC50 (curve of compound): > 1000 nM

SMILES: C=C(F)C(=O)N1CCN(c2nc(OCC3CCCN3C)nc3c2CCN(c2cccc4cccc(Cl)c24)C3)CC1CC#N (stereo not given)
- viability, T/C (compound 0.0316 µM): 81.4% and 94.5%
- viability, T/C (compound 0.1 µM): 95.2% and 103%
- viability, T/C (compound 0.316 µM): 76.2% and 82.3%
- viability, T/C (compound 1 µM): 68.4% and 87.2%
- viability, T/C (compound 3.16 µM): 53.2% and 64.6%
- viability, T/C (compound 10 µM): 1.63% and 4.44%
- IC50 (curve of compound): 3200 nM and 4140 nM

SMILES: CNC(=O)c1ccc(Nc2nc(OC3CCCC3)c3c(-c4ccc5nc(C)oc5c4)c[nH]c3n2)c(OC)c1
- viability, T/C (compound 0.1 µM): 89.6% [middle of 11 runs]
- viability, T/C (compound 0.316 µM): 60.3% [middle of 11 runs]
- viability, T/C (compound 1 µM): 50% [middle of 10 runs]
- viability, T/C (compound 3.16 µM): 44.5% [middle of 11 runs]
- viability, T/C (compound 10 µM): 42.6% [middle of 11 runs]

SMILES: CCc1c2c(nc3ccc(O)cc13)-c1cc3c(c(=O)n1C2)COC(=O)[C@]3(O)CC
- viability, T/C (compound 0.00316 µM): 37.6% and 46.9%
- viability, T/C (compound 0.01 µM): 41% and 49.8%
- viability, T/C (compound 0.0316 µM): 32.2% and 42.1%
- viability, T/C (compound 0.1 µM): 32.6% and 36%
- viability, T/C (compound 0.316 µM): 11.1% and 16.2%
- viability, T/C (compound 1 µM): 3.13% and 2.22%
- IC50 (curve of compound): < 3.16 nM
